Results on six compounds are retold here after patent US4010264A, “7-[3-Substituted isoxazol-5-yl]-acetamido-cephalosporanic acids and their anti-bacterial use” (Koninklijke Nederlandsche Gist-en Spiritusfabriek N.V., priority 1970, dated 1977).

Assay [1] concerns Staphylococcus aureus A55. Put plainly: MIC, agar serial dilution test. Format: cell-based.
The test system of assay [2] is Staphylococcus aureus A 321. Put plainly: in vivo infection test in mice. As to conditions: A321, in Mus musculus.
The subject of assay [3] is Klebsiella pneumoniae A809. Put plainly: MIC, agar serial dilution test. Format: cell-based.
Assay [4] has as its system Pasteurella multocida A723. Put plainly: MIC, agar serial dilution test. Format: cell-based.
In assay [5] the test system is Streptococcus faecalis L 80. Briefly: MIC, agar serial dilution test. Format: cell-based. As to conditions: Enterococcus faecalis.
For assay [6], the system named is Staphylococcus aureus A355 (penicillinase-producing). Briefly: MIC, agar serial dilution test. The following applies: 24 h.
Assay [7] relates to Staphylococcus aureus L160a (penicillinase-producing). Briefly: MIC, agar serial dilution test. The following applies: 24 h.
Assay [8] concerns Bacillus subtilis ATCC 6633. Briefly: MIC, agar serial dilution test. Format: cell-based.
In assay [9] the test system is Streptococcus haemolyticus A266. Put plainly: MIC, agar serial dilution test. Format: cell-based.
In assay [10] the test system is Diplococcus pneumoniae L 54. Briefly: MIC, agar serial dilution test. The following applies: Streptococcus pneumoniae. The class given is cell-based.
The subject of assay [11] is Staphylococcus aureus A321. Briefly: MIC, agar serial dilution test. The class given is cell-based.
In a further assay the test system is Brucella melitensis A488. Put plainly: microbe, parasite or virus in culture. The class given is cell-based. As to conditions: A488, 24 h.
Where [12] appears, read: Staphylococcus aureus A55, 24 hours at 37° C, read-out: MIC.
[13] abbreviates: Klebsiella pneumoniae A809, 24 hours at 37° C, read-out: MIC.
[14] abbreviates: Pasteurella multocida A723, 24 hours at 37° C, read-out: MIC.
[15] abbreviates: L80, Streptococcus faecalis L 80, 24 hours at 37° C, read-out: MIC.
[16] abbreviates: ATCC6633, Bacillus subtilis ATCC 6633, 24 hours at 37° C, read-out: MIC.
Setting [17] is: Streptococcus haemolyticus A266, 24 hours at 37° C, read-out: MIC.
[18] abbreviates: L54, Diplococcus pneumoniae L 54, 24 hours at 37° C, read-out: MIC.
Setting [19] is: Staphylococcus aureus A321, 24 hours at 37° C, read-out: MIC.

Each structure is given as a SMILES string. ≈ marks a conversion by molar mass, not a printed value. Where a name gives a salt, the structure may show the parent alone. Read-outs that look alike come from different tables or passages of the source.

In the case of `Cc1cc(C)c(-c2cc(C(Cl)C(=O)NC3C(=O)N4C3SC(C)(C)C4C(=O)O)on2)c(C)c1` (stereo not drawn) [Example IX, Cyclohexylamine salt of 6-{α-chloro-[3-(2,4,6-trimethyl)phenyl-isoxazol-5-yl]acetamido}penicillanic acid], the MIC in [1] (setting [12]) was 0.25 µg/mL; in assay [3] (setting [13]) it was over 100 µg/mL; in assay [4] (setting [14]), 25 µg/mL; in assay [5] (setting [15]), 1.5 µg/mL; in [6], 25 µg/mL; in [7], 25 µg/mL. The MIC in assay [8] (setting [16]) was 0.12 µg/mL; in assay [9] (setting [17]), 0.06 µg/mL; in assay [10] (setting [18]) it was 0.12 µg/mL; in [11] (setting [19]), 0.25 µg/mL; against Brucella melitensis A488, 25 µg/mL. For the same compound, the 50% effective dose (ED50) (commonly the midpoint of the dose-response relation) in assay [2] (ip) was over 21.5 mg/kg; in assay [2] (po), over 100 mg/kg.

As for `CC1(C)SC2C(NC(=O)C(N)c3cc(-c4c(Cl)cccc4Cl)no3)C(=O)N2C1C(=O)O` (stereo not drawn) [Example XVIII, 6-{α-amino-[3-(2,6-dichloro)phenyl-isoxazol-5-yl]acetamido} penicillanic acid], the MIC in [1] (setting [12]) is 0.25 µg/mL (≈ 0.515 µM); in assay [3] (setting [13]) it was over 100 µg/mL; in assay [4] (setting [14]), 6 µg/mL (≈ 12.4 µM); in assay [5] (setting [15]), 1 µg/mL (≈ 2.06 µM); in [6], 12.5 µg/mL (≈ 25.8 µM); in [7], 12.5 µg/mL (≈ 25.8 µM). The MIC in assay [8] (setting [16]) is 0.06 µg/mL (≈ 0.124 µM); in [9] (setting [17]) it was under 0.015 µg/mL; in assay [10] (setting [18]) it was 0.12 µg/mL (≈ 0.247 µM); in [11] (setting [19]), 0.12 µg/mL (≈ 0.247 µM); against Brucella melitensis A488, 0.5 µg/mL (≈ 1.03 µM).

Consider `CC1=C(C(=O)O)N2C(=O)C(NC(=O)Cc3onc(-c4c(C)cc(C)cc4C)c3C)C2SC1` (centres unmarked) [XIII, Sodium salt of 7-{[3-(2,4,6-trimethyl)phenyl-4-phenyl-methyl-isoxazol-5-yl]acetamido}desacetoxycephalosporanic acid], for which the MIC in [1] (setting [12]) was 3 µg/mL; in assay [3] (setting [13]) it was over 100 µg/mL; in [4] (setting [14]), over 100 µg/mL; in assay [5] (setting [15]), 100 µg/mL; in [6], 6 µg/mL; in [7] it was 6 µg/mL. Besides, the MIC in assay [8] (setting [16]) was 1 µg/mL; in [9] (setting [17]) it was 0.6 µg/mL; in [10] (setting [18]), 1.5 µg/mL; in assay [11] (setting [19]) it was 1.5 µg/mL; against Brucella melitensis A488, over 100 µg/mL.

On to `Cc1cc(CC(=O)NC2C(=O)N3[C@@H]2SC(C)(C)[C@@H]3C(=O)O)on1` (some centres unmarked) [Example XXI, 6-{[3-methyl-isoxazol-5-yl]acetamido}penicillanic acid], for which the MIC is 0.5 µg/mL (≈ 1.47 µM) in assay [1] (setting [12]); over 100 µg/mL in assay [3] (setting [13]); 1.5 µg/mL (≈ 4.42 µM) in assay [4] (setting [14]); 3 µg/mL (≈ 8.84 µM) in assay [5] (setting [15]); 6 µg/mL (≈ 17.7 µM) in [6]; 3 µg/mL (≈ 8.84 µM) in assay [7]. Further, the MIC in [8] (setting [16]) was 0.06 µg/mL (≈ 0.177 µM); in [9] (setting [17]), 0.03 µg/mL (≈ 0.0884 µM); in [10] (setting [18]), 1.5 µg/mL (≈ 4.42 µM); in assay [11] (setting [19]), 0.25 µg/mL (≈ 0.737 µM); in the assay with Brucella melitensis A488 it was 3 µg/mL (≈ 8.84 µM).

For the compound `CC1(C)SC2C(NC(=O)Cc3cc(C45CC6CC(CC(C6)C4)C5)no3)C(=O)N2C1C(=O)O` (centres unmarked) [Example XVI, Sodium salt of 6-{[3-(1)adamantyl-isoxazol-5-yl]acetamido} penicillanic acid], the MIC in [1] (setting [12]) is 0.5 µg/mL; in assay [3] (setting [13]), over 100 µg/mL; in [4] (setting [14]), 6 µg/mL; in assay [5] (setting [15]), 0.25 µg/mL; in assay [6], 12.5 µg/mL; in assay [7], 12.5 µg/mL. Besides, the MIC in [8] (setting [16]) was 0.03 µg/mL; in assay [9] (setting [17]) it was under 0.015 µg/mL; in assay [10] (setting [18]), 0.06 µg/mL; in assay [11] (setting [19]), 0.03 µg/mL; in the assay with Brucella melitensis A488, 3 µg/mL.

In the case of `O=C(Cc1cccs1)N[C@@H]1C(=O)N2C(C(=O)[O-])=C(C[n+]3ccccc3)CS[C@H]12` [Cephaloridine, Cephaloridin, reference compound], the MIC is 0.06 µg/mL (≈ 0.144 µM) in assay [1] (Staphylococcus aureus, A55, 24 h); 3 µg/mL (≈ 7.22 µM) in assay [3] (Klebsiella pneumoniae, A809, 24 h); 1 µg/mL (≈ 2.41 µM) in [4] (Pasteurella multocida, A723, 24 h); 12.5 µg/mL (≈ 30.1 µM) in assay [5] (L80, 24 h); 0.12 µg/mL (≈ 0.289 µM) in [6]; 0.06 µg/mL (≈ 0.144 µM) in [7]. Besides, the MIC stood at 0.06 µg/mL (≈ 0.144 µM) in assay [8] (Bacillus subtilis, ATCC6633, 24 h); 0.015 µg/mL (≈ 0.0361 µM) in assay [9] (Streptococcus, A266, 24 h); 0.015 µg/mL (≈ 0.0361 µM) in assay [10] (L54, 24 h); 0.06 µg/mL (≈ 0.144 µM) in assay [11] (Staphylococcus aureus, A321, 24 h); 3 µg/mL (≈ 7.22 µM) in the assay on Brucella melitensis A488.
